The values that follow come from patent US6696267B2, “Methods and compositions for screening Icrac modulators” (Warner-Lambert Company, priority 2000, dated 2004).

Where two headings read alike, the source gives them in different places.

Data set [1] relates to NFAT-driven β-lactamase synthesis in p815 mastocyte cells. Nature of the data set: NFAT-β-lactamase gene-reporter assay in p815 mastocytes (p815-NFAT-βlac). The format is cell-based. As to conditions: mastocytes (not shown). On the procedure: The mastocyte monoclonal cell line (p815-NFAT-βlac) stably transfected with plasmid containing 3×NFAT-β-lactamase were obtained as follow. Cells (1.10^7/ml) were electroporated in a 0.4 cm gap cuvette using a BioRad Gene Pulser II at 960 μF and 300V, using 20 μg of pcDNAIII 3×NFAT-β-lactamase Zeomycin expression vector (from Aurora Biosciences Corp; San Diego, Calif.) in DMEM medium. After 48 h, electroporated p815 cells were selected for 2 weeks using 250 μg/ml Zeocin (InVitrogen, Calif.). A pool of TG responding cells were first sorted, using FACS Vantage (Becton Dickinson, Calif.), and a week after, 200 cells were monosorted (one cell per well) from this pool, 15 clones grown up, and were tested as follow.
Jurkat cells were grown in RPMI 1640 medium supplemented with 10% foetal bovine serum, 2 mM L-glutamine, 1 mM NEAA, 1 mM Na pyruvate, 25 mM HEPES, pH 7.4, gentamicin 100 μg/ml. HEK-293 cells were grown in MEM glutamax, supplemented with 10% FBS, gentamycin 100 μg/ml, HEPES 20 mM. Medium for stable cell propagation contained 250 μg/ml Zeocin (Jk-NFAT-βlac) or 800 μg/ml Geneticin (Jk-CMV-βlac, HEK-CRE-βlac). […] Fluorescence was monitored with a Fluostar (BMG, Germany) fluorimeter. […] The ratio (460 nm/535 nm) of fluorescence unit (F.U.) was estimated after correction for background (medium without cells). […]
For orientation: A reporter such as luciferase makes a cellular process visible.

The test system of data set [2] is NFAT-driven β-lactamase synthesis (Icrac activation) in NFAT-β-lactamase Jurkat cells. The data set can be described thus: NFAT-β-lactamase gene-reporter assay in Jurkat cells (Jk-NFAT-βlac), CCF2-AM ratio 460/535. The format is cell-based. To be noted: for Effect on TG-driven β-lactamase synthesis / NFAT activation / Effect on β-lactamase synthesis at 10 μM: Jurkat cells; for Effect on TG-driven β-lactamase synthesis / NFAT activation: with TG 1 μM for 4 h (FIG. 4); for Effect on β-lactamase synthesis at 10 μM: TG 1 μM (FIG. 4). The protocol: (§1) Jurkat cell lines (Jk-NFAT-βlac) stably transfected with plasmid containing 3×NFAT-β-lactamase reporter gene (for NFAT promoter sequence see (19)), and plasmid containing CMV-β-lactamase (Jk-CMV-βlac), where CMV is a constitutively active promoter as well as HEK cells (HEK-CRE-βlac) with 3×CRE-β-lactamase (the CRE promoter contains CRE box sequence of CGTCA (20)) were obtained from Aurora Biosciences Corp (San Diego, Calif.).
Jurkat cells were grown in RPMI 1640 medium supplemented with 10% foetal bovine serum, 2 mM L-glutamine, 1 mM NEAA, 1 mM Na pyruvate, 25 mM HEPES, pH 7.4, gentamicin 100 μg/ml. HEK-293 cells were grown in MEM glutamax, supplemented with 10% FBS, gentamycin 100 μg/ml, HEPES 20 mM. Medium for stable cell propagation contained 250 μg/ml Zeocin (Jk-NFAT-βlac) or 800 μg/ml Geneticin (Jk-CMV-βlac, HEK-CRE-βlac). […] Cells were then loaded, for 1 h in the dark at room temperature, with 12 μM CCF2-AM (13). Fluorescence was monitored with a Fluostar (BMG, Germany) fluorimeter. Excitation was at 405 nm, and emission record at 460 nm and 535 nm. The ratio (460 nm/535 nm) of fluorescence unit (F.U.) was estimated after correction for background (medium without cells). HEK-CRE-βlac were stimulated using Forskolin 10 μM in the medium mentioned above (4×10^4 cells/well). All reagents were added with the stimulator agent (e.g. TG or forskolin), unless noticed.

Data set [3] has as its target β-lactamase. As to conditions: β-lactamase inhibitor; cited from earlier work.
Data set [4] has as its system NFAT-β-lactamase Jurkat cells. The data set can be described thus: CCF2-AM loading capacity of NFAT-β-lactamase Jurkat cells (F.U. at 535 nm). To be noted: for Toxic effects (weak loading): 50 μM, data not shown.
Data set [5] deals with constitutive β-lactamase (CMV-driven) in Jurkat cells. Nature of the data set: Constitutive CMV-β-lactamase Jurkat cell assay (Jk-CMV-βlac). The format is cell-based. To be noted: Jk-CMV-βlac cells (FIG. 6, DMSO 3%). On the procedure: as §1
Jurkat cells were grown in RPMI 1640 medium supplemented with 10% foetal bovine serum, 2 mM L-glutamine, 1 mM NEAA, 1 mM Na pyruvate, 25 mM HEPES, pH 7.4, gentamicin 100 μg/ml. HEK-293 cells were grown in MEM glutamax, supplemented with 10% FBS, gentamycin 100 μg/ml, HEPES 20 mM. Medium for stable cell propagation contained 250 μg/ml Zeocin (Jk-NFAT-βlac) or 800 μg/ml Geneticin (Jk-CMV-βlac, HEK-CRE-βlac). In a 96-well plate, 1 μM Thapsigargin (TG) was used to stimulate NFAT Jurkat cells (10^5 per well), for 4 h at 37° C., 5% CO2, in Dulbecco's Modified Essential Medium ([Ca^++] 1.8 mM) 10% FBS, gentamycin 100 μg/ml. Cells were then loaded, for 1 h in the dark at room temperature, with 12 μM CCF2-AM (13). Fluorescence was monitored with a Fluostar (BMG, Germany) fluorimeter. Excitation was at 405 nm, and emission record at 460 nm and 535 nm. The ratio (460 nm/535 nm) of fluorescence unit (F.U.) was estimated after correction for background (medium without cells). […]

For data set [6], the system named is Icrac channel. Nature of the data set: Optical measurement of intracellular [Ca++] with Fura-2. To be noted: Fura-2 as probe. Format: cell-based. The protocol:
Loading with 2 μM fura-2-AM was performed with a 3×10^6 cells suspension for 30 min at 37° C., in Hanks buffer saline solution (HBSS). Cells were washed and resuspended twice to minimize extracellular dye. Fura-2 fluorescence measurements were carried out in a water-jacketed cuvette (room temperature) with continuous stirring, containing 1 ml of the cells suspension. Fluorescence was monitored with a Shimadzu spectrofluorophotometer by continuously (1 sec intervals) collecting excitation signals at 340 nm and 380 nm and emission signal at 510 nm. Maximal and minimal fluorescence were obtained by adding ionomycin 25 μM and EGTA (20 mM) respectively and sequentially at the end of the experiment. The ratio of excitation signals at 340 nm and 380 nm was used to calculate [Ca^++] as previously described (21) assuming a Kd of 155 nM.

For `C=C1[C@@H](O)[C@@H]2O[C@]3(CC[C@H](/C=C/[C@@H](C)[C@@H]4CC(C)=C[C@@]5(O[C@H](C[C@@](C)(O)C(=O)O)CC[C@H]5O)O4)O3)CC[C@H]2O[C@@H]1[C@@H](O)C[C@H](C)[C@H]1O[C@@]2(CCCCO2)CC[C@H]1C` [Okadaic acid, okadaic acid], the “Effect on β-lactamase synthesis” value in data set [1] was “blocked the β-lactamase synthesis”. Further, the “Effect on TG-driven β-lactamase synthesis / NFAT activation” value in data set [2] is listed as “blocked the β-lactamase synthesis”.

With `CC(=O)C1=C(O)[C@@H]2[C@H]3c4c[nH]c5cccc(c45)C[C@H]3C(C)(C)N2C1=O` [CPA, cyclopiazonic acid], the “Ratio (460 nm/535 nm)” value in data set [2] is listed as 0.407 ± 0.041. Moreover, the “% total (TG 1 μM)” value in data set [2] (CPA 10 μM) is 59%.

phytohemaggutinin [PHA]: in data set [2] (PHA 1 μg/ml), the “% total (TG 1 μM)” value turned out to be 41% and the “Ratio (460 nm/535 nm)” value is on record as 0.280 ± 0.116. Besides, in data set [2] (PHA 10 μg/ml), the “% total (TG 1 μM)” value came to 84% and the “Ratio (460 nm/535 nm)” value was 0.578 ± 0.040.

For the molecule `C[C@]1(Cn2ccnn2)[C@H](C(=O)O)N2C(=O)C[C@H]2S1(=O)=O` [Tazobactam], the Ki (as a rule, the equilibrium dissociation constant of an inhibitor or competing ligand from its target) in data set [3] is 700 nM. In data set [2] (Homo sapiens, Jurkat, NFAT-driven (FIG. 4), read-out: IC50, block of NFAT-driven β-lactamase), the half-maximal inhibitory concentration (IC50) (usually the midpoint of a concentration-inhibition curve) was found to be 2000 nM.

For the molecule `COc1ccc(CCN(C)CCCC(C#N)(c2ccc(OC)c(OC)c2)C(C)C)cc1OC` (stereo not drawn) [Verapamil], in data set [4], the “Toxic effects (weak loading)” value is recorded as “Toxic effects were detected”. Further, in data set [2], the “Effect on β-lactamase synthesis at 10 μM” value is “did not have any effect”.

As to `C[C@@H]1C[C@@H]([C@H](O)CC2CC(=O)NC(=O)C2)C(=O)[C@@H](C)C1` [CHX, cycloheximide], the “Effect on β-lactamase synthesis when added after TG stimulation” value in data set [2] (added as long as 4 hrs after TG stimulation) was “inhibitory effect”.

Regarding `C[S+](C)[O-]` [DMSO, dimethyl sulfoxide], the “F.U. at 535 nm, % control” value in data set [4] (DMSO 0.1%) is on record as 99.2%; in data set [4] (DMSO 1%) it was 96.1%; in data set [4] (DMSO 2%) it was 97%; in data set [4] (DMSO 4%) it was 107.7%; in data set [4] (DMSO 5%) it was 110.1%. In data set [5], the “Effect on constitutive β-lactamase synthesis” value is reported as “no effect”. The “Interference with the assay” value in data set [2] (0.5% final concentration) is on record as “did not hinder the assay”. In addition, the “Effect on β-lactamase synthesis when added after TG activation” value in data set [2] (added 3 hrs after TG activation) is “did not block β-lactamase synthesis”. Moreover, in data set [6], the “Effect on the Icrac channel, [Ca++]i determination” value is listed as “no effect”.

For `CCCCCCCCCCCCCC(=O)O[C@@H]1[C@@H](C)[C@@]2(O)[C@@H](C=C(CO)C[C@]3(O)C(=O)C(C)=C[C@@H]23)[C@@H]2C(C)(C)[C@]12OC(C)=O` [PMA, phorbol myristate acetate], the “Ratio (460 nm/535 nm)” value in data set [2] is 0.012 ± 0.008. Also, in data set [2] (PMA 10 nM), the “% total (TG 1 μM)” value is recorded as 2%.

For `C/C=C(/C)C(=O)O[C@H]1C(C)=C2[C@H]([C@@H]1OC(=O)CCCCCCC)[C@@](C)(OC(C)=O)C[C@H](OC(=O)CCC)[C@@]1(O)[C@H]2OC(=O)[C@@]1(C)O` [TG, thapsigargin], in data set [2] (5-10 μM TG), the “β-lactamase synthesis versus TG concentration” value is on record as “decrease was observed”. In addition, in data set [2] (TG 1 μM), the “% total (TG 1 μM)” value was determined as 100% and the “Ratio (460 nm/535 nm)” value is 0.688 ± 0.035. Further, the “Relative potency as Icrac activator (in words)” value in data set [2] (Table 1) is listed as “most active Icrac activator”. In addition, the “β-lactamase synthesis versus TG concentration” value in data set [2] (concentrations higher than 1 μM (FIG. 2C)) is “did not further increase the β-lactamase synthesis”. Moreover, in data set [2] (conventional conditions, 0.4 mM [Ca++] (FIG. 2B)), the “β-lactamase activity with thapsigargin alone” value is reported as “weak”.

In the case of calyculin, in data set [2], the “Effect on TG-driven β-lactamase synthesis / NFAT activation” value is “blocked the NFAT activation in a dose dependent manner”.

In the case of `COc1ccc([C@@H]2Sc3ccccc3N(CCN(C)C)C(=O)[C@@H]2OC(C)=O)cc1` [Diltiazem], the “Toxic effects (weak loading)” value in data set [4] is on record as “Toxic effects were detected”. Also, in data set [2], the “Effect on β-lactamase synthesis at 10 μM” value is reported as “did not have any effect”.
